Among the data in patent publication US8153658B2, “Piperidine derivative or salt thereof” (Astellas Pharma, Inc., priority 2006, dated 2012) are EC50, IC50 and inhibition in vivo values, retold here.

Where a name gives a salt, the structure may show the parent alone. Read-outs that look alike come from different tables or passages of the source. Where only a bound is given, the exact number is not on record here.

Usually IC50 stands for the point on the concentration scale where inhibition reaches its midpoint. Low readings indicate higher potency, high ones lower potency.

One experiment concerns the target T1, human CaSR (Homo sapiens, UniProt P41180).
T1 construct: a human CaSR open reading frame (ORF) was contained in the pcDNA3.1/Zeo(+) vector; expressed in transfected cells
T1 sequence (P41180 20-1078): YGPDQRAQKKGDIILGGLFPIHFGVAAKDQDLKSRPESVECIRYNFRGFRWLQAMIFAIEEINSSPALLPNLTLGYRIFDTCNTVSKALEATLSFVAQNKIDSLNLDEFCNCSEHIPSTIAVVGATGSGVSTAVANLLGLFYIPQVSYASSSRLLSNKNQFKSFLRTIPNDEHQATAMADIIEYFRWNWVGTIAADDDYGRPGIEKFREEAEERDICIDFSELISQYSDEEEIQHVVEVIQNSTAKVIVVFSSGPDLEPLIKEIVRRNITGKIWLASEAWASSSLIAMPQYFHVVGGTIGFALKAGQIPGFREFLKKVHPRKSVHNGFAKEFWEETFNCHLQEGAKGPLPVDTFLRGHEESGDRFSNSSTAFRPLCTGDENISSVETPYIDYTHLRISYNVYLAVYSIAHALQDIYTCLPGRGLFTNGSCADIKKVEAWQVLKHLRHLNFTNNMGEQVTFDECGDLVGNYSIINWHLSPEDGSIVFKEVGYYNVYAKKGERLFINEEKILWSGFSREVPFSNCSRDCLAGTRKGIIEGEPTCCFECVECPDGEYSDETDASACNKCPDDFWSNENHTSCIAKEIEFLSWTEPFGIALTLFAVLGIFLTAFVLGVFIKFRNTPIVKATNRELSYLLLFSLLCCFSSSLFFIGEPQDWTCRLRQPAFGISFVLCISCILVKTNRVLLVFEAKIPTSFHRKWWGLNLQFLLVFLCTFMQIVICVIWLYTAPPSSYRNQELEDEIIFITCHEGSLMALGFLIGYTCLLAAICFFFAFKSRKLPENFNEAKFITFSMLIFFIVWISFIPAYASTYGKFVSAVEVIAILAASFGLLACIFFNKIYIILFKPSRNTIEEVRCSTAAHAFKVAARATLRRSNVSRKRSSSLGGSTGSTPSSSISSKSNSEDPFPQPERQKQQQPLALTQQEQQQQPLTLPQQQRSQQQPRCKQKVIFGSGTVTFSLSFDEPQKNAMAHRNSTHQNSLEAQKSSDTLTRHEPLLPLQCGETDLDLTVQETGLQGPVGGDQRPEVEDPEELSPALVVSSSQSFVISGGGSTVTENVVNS
The experiment can be described thus: Human calcium sensing receptor (CaSR) agonism test (Fluo-3 / FLIPR). It counts as cell-based. The settings on record: HEK 293 cell stably expressing human CaSR; 0.5 mM Ca2+; 2 mM Ca2+ group = 100%; read-out: EC50 (compound concentration showing 50% human CaSR agonistic activity). The text has this: Test 1. Human calcium sensing receptor (CaSR) agonism test
1) Preparation of Human CaSR Expression Vector
A DNA fragment coding for human CaSR was cloned in the standard method.
Illustratively, using 203 to 2387 of NM_000388 as a DNA fragment D4, and 2210 to 3633 as a DNA fragment B2, they were amplified using a human kidney cDNA (manufactured by Invitrogen) as the template and using a DNA polymerase (a registered trade name: Pyrobest, manufactured by Takara Bio), and respectively cloned into a pCR2.1 vector using a pCR2.1-Topo vector (manufactured by Invitrogen). Next, the DNA fragments prepared by digesting the pCR2.1-D4 with SpeI and XbaI were inserted into the same sites of pcDNA3.1/Zeo(+) vector. Successively, the fragments prepared by digesting pCR2.1-B2 with SacI and XbaI were inserted into the SacI and XbaI sites of previously prepared pcDNA3.1/Zeo(+)-D4(SpeI-XbaI), thereby obtaining a human CaSR expression vector pcDNA3.1/Zeo(+)-hCaSR in which a human CaSR open reading frame (ORF) was contained in the pcDNA3.1/Zeo(+) vector.
2) Preparation of Human CaSR Expression Cell
The human CaSR expression vector was transferred into a HEK 293 cell using a transfection reagent (registered trademark: FuGene 6, manufactured by Roche Diagnostics). After the gene transfer, this was cultured in a DMEM (manufactured by Invitrogen) medium containing 40 μg/ml Zeocin (registered trademark, manufactured by Invitrogen) and a 10% fetal bovine serum at 37° C. for 2 weeks in the presence of 5% CO2, thereby obtaining Zeocin-resistant clones. A human CaSR stably expressing HEK 293 clone was obtained from these clones by selection using the responsiveness to extracellular Ca^2+ as an index.
3) Human CaSR Agonism Test
The HEK 293 cell stably expressing human CaSR was inoculated into a poly-D-lysine-coated black clear bottom 96 well plate (manufactured by BD Biosciences). Hanks' balanced salt solution (HBSS) (Ca^2+ (−), Mg^2+ (−), manufactured by Invitrogen) containing a 20 mM HEPES (2-[4-(2-hydroxyethyl)-1-piperazinyl]ethanesulfonic acid) buffer (pH 7.4), 2.5 mM of probenecid (manufactured by Sigma), and 0.1% of bovine serum albumin was prepared as a washing buffer. After the inoculation and the subsequent overnight culturing, the medium was discarded, the washing buffer supplemented with 1 mM CaCl2 and 10 μM Fluo-3 AM (trade name, manufactured by DOJINDO) was added thereto in 100 μl per well portions, and then the incubation was carried out at 37° C. for 1 hour in the presence of 5% CO2. This was washed twice with 200 μl of the washing buffer, replaced by 100 μl of the washing buffer supplemented with 0.5 mM CaCl2 and allowed to stand still for 10 minutes, and then the responsiveness to each compound to be evaluated was detected using a plate reader for fluorometry image analysis use (registered trademark: FLIPR, manufactured by Molecular Devices). In this connection, the compound to be evaluated was used by optionally diluting with the washing buffer supplemented with 0.5 mM Ca^2+.
The human CaSR agonistic activity strength of each compound to be evaluated was calculated by defining the solvent group as 0% and the 2 mM of Ca^2+ in the final concentration group as 100%, and the compound concentration showing 50% activity (EC50) was calculated from a concentration-activity curve by the method of least squares.

In the next experiment the target is CYP2D6 (Homo sapiens, UniProt P10635). Briefly: Human CYP2D6 inhibition test. The class given is biochemical. The note with it: CYP2D6 7.5 pmol/mL; fluorescence substrate AMMC 1.5 μM; 37° C. 30 minutes. Further details: purchased BD Gentest 456217. How it is done:
Test 3. Human CYP2D6 Inhibition Test
Inhibitory activity evaluation for CYP2D6 was carried out by measuring it in accordance, roughly, with a reference (“Drug Metabolism and Disposition”, 2001, vol. 29, p. 1196-1200).
Final concentrations of the reagents in the enzyme reaction solution were respectively set to CYP2D6=7.5 pmol/mL (manufactured by BD Gentest, Catalog No. 456217), reduced type nicotinamide adenine dinucleotide phosphate (NADPH) regeneration system (0.0081 mM nicotinamide adenine dinucleotide phosphate (NADP+), 0.41 mM glucose-6-phosphate, 0.41 mM MgCl2, 0.4 units glucose-6-phosphate dehydrogenase), and a fluorescence substrate AMMC=1.5 μM, 100 mM potassium phosphate buffer (pH 7.4). Each compound was made into a 50% acetonitrile solution and added to the enzyme reaction solution (acetonitrile final concentration 2.5%). The enzyme reaction was carried out at 37° C. for 30 minutes, the reaction was stopped using a stopping liquid (0.1 M tris(hydroxymethyl)aminomethane (Tris-base):acetonitrile=20:80), and the fluorescence intensity was then measured. The concentration showing 50% inhibition (IC50) was calculated from the thus obtained fluorescence intensity, by defining the enzyme activity at a time of no compound addition as 100%.

The nature of experiment [1]: Measurement of rat plasma calcium concentration. The class given is in vivo. The note with it: read-out: Rat plasma calcium concentration reducing ratio (%) 2 hours after administration (3 mg/kg). How it is done: Test 2. Measurement of Rat Plasma Calcium Concentration and Plasma PTH Concentration
The compounds of the present invention were administered to rats, and their influences upon the plasma calcium concentration and the plasma PTH concentration were examined. The test was carried out by single oral administration of the compounds of the present invention and the control compounds to 5 to 6 normal male rats, or male rats with renal failure, respectively As a vehicle group, 0.5% of a methyl cellulose (MC) solution was administered at a dose of 5 ml/kg. As a reference compound, cinacalcet was dissolved in the MC solution and administered at a dose of 3 mg/kg. Each of the compounds of the present invention was dissolved or suspended in the MC solution, and administered at a dose of 1, 3 or 10 mg/kg.
Blood samples were collected from the orbital venous plexus under ether anesthesia before the administration and 2 hours, 4 hours, or 8 hours in some cases, after the administration, and the plasma calcium concentration was measured using Calcium E-Test Wako (manufactured by Wako Pure Chemical Industries), and the plasma PTH concentration was measured using a Rat Intact PTH ELISA Kit (manufactured by Immutopics).

Where [2] appears, read: normal male rats, single oral administration 3 mg/kg, 2 hours after administration.

Chain of CYP2D6 (P10635 whole entry): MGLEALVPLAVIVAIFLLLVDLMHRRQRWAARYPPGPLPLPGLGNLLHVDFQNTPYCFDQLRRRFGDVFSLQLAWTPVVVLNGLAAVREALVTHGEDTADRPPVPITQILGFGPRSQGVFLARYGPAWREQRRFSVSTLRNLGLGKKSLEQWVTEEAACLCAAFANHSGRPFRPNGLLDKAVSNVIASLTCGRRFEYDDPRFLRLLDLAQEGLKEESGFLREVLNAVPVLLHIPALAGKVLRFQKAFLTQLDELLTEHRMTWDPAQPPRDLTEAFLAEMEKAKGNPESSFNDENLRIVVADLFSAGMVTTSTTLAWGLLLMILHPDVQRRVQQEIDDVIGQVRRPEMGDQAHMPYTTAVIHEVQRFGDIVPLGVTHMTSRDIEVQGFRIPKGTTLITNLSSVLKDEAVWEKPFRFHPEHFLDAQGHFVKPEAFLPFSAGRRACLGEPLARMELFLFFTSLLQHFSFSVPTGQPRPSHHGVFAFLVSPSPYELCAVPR

For the compound `COc1cc(C(=O)O)ccc1NC(=O)N1CCC(c2ccccc2)C(CN[C@H](C)c2cccc3ccccc23)C1` (stereo partly drawn) [Example 3, 3-methoxy-4-({[3-({[(1R)-1-(1-naphthyl)ethyl]amino}methyl)-4-phenylpiperidin-1-yl]carbonyl}amino)benzoic acid], on human CaSR, the EC50 is 1.8 nM. Besides, at CYP2D6, the IC50 is not below 20000 nM.

With `C[C@@H](NCC1CN(C(=O)Nc2ccc(C(=O)O)cc2)CCC1c1cccc(F)c1)c1cccc2ccccc12` (stereo partly drawn) [Example 13, 4-({[4-(3-fluorophenyl)-3-({[(1R)-1-(1-naphthyl)ethyl]amino}methyl)piperidin-1-yl]carbonyl}amino)benzoic acid hydrochloride], the EC50 at human CaSR was determined as 2.9 nM. On CYP2D6, this compound displayed an IC50 not below 20000 nM.

Regarding `C[C@@H](NCC1CCN(C(=O)Oc2ccc(C(=O)O)cc2)CC1c1ccccc1)c1cccc2ccccc12` (stereo partly drawn) [Example 25, 4-({[4-({[(1R)-1-(1-naphthyl)ethyl]amino}methyl)-3-phenylpiperidin-1-yl]carbonyl}oxy)benzoic acid hydrochloride], the EC50 at human CaSR came to 13 nM. This compound also came in with an IC50 at CYP2D6 not below 20000 nM. In experiment [1] (po, 2 h), the inhibition in vivo at 3 mg/kg turned out to be 17%.

Regarding `C[C@@H](NCC1CCN(c2cccc(C(=O)O)n2)CC1c1ccccc1)c1cccc2ccccc12` (stereo partly drawn) [Example 30, 6-[4-({[(1R)-1-(1-naphthyl)ethyl]amino}methyl)-3-phenylpiperidin-1-yl]pyridine-2-carboxylic acid hydrochloride], the EC50 on human CaSR was 5.5 nM. The IC50 at CYP2D6 was not below 20000 nM.

For `C[C@@H](NCC1CCN(c2ncc(C(=O)O)cc2Cl)CC1c1ccccc1)c1cccc2ccccc12` (stereo partly drawn) [Example 31, 5-chloro-6-[4-({[(1R)-1-(1-naphthyl)ethyl]amino}methyl)-3-phenylpiperidin-1-yl]nicotinic acid hydrochloride], at human CaSR, the EC50 came out at 5 nM. Also, the inhibition in vivo at 3 mg/kg in experiment [1] (setting [2]) amounted to 24%.

As for `C[C@@H](NCC1CCN(c2ncc(C(=O)O)cc2Cl)CC1c1ccccc1F)c1cccc2ccccc12` (stereo partly drawn) [Example 32, 5-chloro-6-[3-(2-fluorophenyl)-4-({[(1R)-1-(1-naphthyl)ethyl]amino}methyl)piperidin-1-yl]nicotinic acid hydrochloride], on human CaSR, the EC50 was 7.5 nM. The inhibition in vivo at 3 mg/kg in experiment [1] (setting [2]) stood at 34%.

With `COc1cccc([C@@H](C)NCC2CCN(c3ncc(C(=O)O)cc3Cl)CC2c2ccccc2)c1` (stereo partly drawn) [Example 33, 5-chloro-6-[4-({[(1R)-1-(3-methoxyphenyl)ethyl]amino}methyl)-3-phenylpiperidin-1-yl]nicotinic acid hydrochloride], on human CaSR, the EC50 was 20 nM. Moreover, the inhibition in vivo at 3 mg/kg in experiment [1] (setting [2]) turned out to be 29%.

For the compound `C[C@@H](NCC1CCN(c2cccc(C(=O)O)c2)CC1c1ccccc1)c1cccc2ccccc12` (stereo partly drawn) [Example 34, 3-[4-({[(1R)-1-(1-naphthyl)ethyl]amino}methyl)-3-phenylpiperidin-1-yl]benzoic acid hydrochloride], the EC50 on human CaSR was determined as 8.1 nM. The same compound showed an IC50 against CYP2D6 not below 20000 nM.

For `C[C@@H](NCC1CCN(c2nc(C(=O)O)cs2)CC1c1ccccc1)c1cccc2ccccc12` (stereo partly drawn) [Example 39, 2-[4-({[(1R)-1-(1-naphthyl)ethyl]amino}methyl)-3-phenylpiperidin-1-yl]-1,3-thiazole-4-carboxylic acid hydrochloride], the EC50 on human CaSR is 2.6 nM. The inhibition in vivo at 3 mg/kg in experiment [1] (setting [2]) amounted to 23%.

For the compound `C[C@@H](NCC1CCN(c2c(F)cc(-c3nnn[nH]3)cc2F)CC1c1ccccc1)c1cccc2ccccc12` (stereo partly drawn) [Example 53, (1R)—N-({1-[2,6-difluoro-4-(1H-tetrazol-5-yl)phenyl]-3-phenylpiperidin-4-yl}methyl)-1-(1-naphthyl)ethaneamine hydrochloride], the EC50 on human CaSR is 3.8 nM. For the same compound, the inhibition in vivo at 3 mg/kg in experiment [1] (setting [2]) amounted to 20%.

`C[C@@H](NCC1CCN(c2c(F)cc(C(=O)O)cc2F)CC1c1ccccc1)c1csc2ccccc12` (some centres unmarked) [Example 87]: at human CaSR, the EC50 came out at 11 nM. The IC50 at CYP2D6 was not below 20000 nM.

`C[C@@H](NCC1CCN(c2cc(C(F)(F)F)c(C(=O)O)cn2)CC1c1cccc(F)c1)c1cccc2ccccc12` (some centres unmarked) [Example 98]: the EC50 at human CaSR came out at 17 nM. The IC50 against CYP2D6 is not below 20000 nM.

Consider `C[C@@H](NCC1CCN(c2ccc(C(=O)O)cn2)CC1c1ccccc1F)c1cccc2ccccc12` (some centres unmarked) [Example 104], for which the EC50 at human CaSR amounted to 14 nM.
